These are literature values, as cited in US20040170683A1, “Tablets comprising modafinil” (priority 2003, published 2004).

For data set [1] the following is noted: capsules containing the finer particles versus capsules containing the coarser particles.
The conditions of data set [2]: oral, human trials; median particle size between 30 and 50 microns versus between 80 and 150 microns.

As for `NC(=O)C[S+]([O-])C(c1ccccc1)c1ccccc1` (centres unmarked) [modafinil, Modafinil], the dissolution of capsules entry in data set [1] is on record as “substantially faster”. The extent of absorption result in data set [2] was “greater extent of absorption”.
